Results: patent US11306072B2, “5-bromo-indirubins” (City of Hope, priority 2013, dated 2022)
Where two headings read alike, the source gives them in different places.

Columns and labels:
[1] = tested on: A549 non-small cell lung cancer cells; assay: MTS cell viability assay, A549 lung cancer cells; assay type: cell-based; conditions: Homo sapiens, 48 h exposure, quadruplicate, read-out: IC50 values against cancer cells, A549 lung
Method: (§1) FIGS. 2A-2G. Effects of 5BIODs on viabilities of human cancer cells; MTS assays were performed for cell viability; human A549 non-small cell lung cancer (FIG. 2A), MDA-MB-231 and MDA-MB-468 breast cancer (FIG. 2B), A2058 melanoma (FIG. 2C), DU145 prostate cancer (FIG. 2D), SKOV3 ovarian cancer (FIG. 2E), T315I Abl mutant KCL-22 CML (FIG. 2F) and MIA-PaCa2 pancreatic cancer (FIG. 2G) cells were seeded in 96-well plates (5000/well for solid tumor cell lines and 10000 cells/well for CML cell line), incubated overnight at 37° C. in 5% (v/v) CO2 and exposed to 5BIODs at 1 μM or 10 μM concentration for 48 h; DMSO was used as the vehicle control; cell viability was determined by tetrazolium conversion to its formazan dye and absorbance was measured at 490 nm using an automated ELISA plate reader; each experiment was performed in quadruplicate. Histogram ordering: FIG. 2B depicts MDA-MB-231 (black) and MDA-MB-468 (gray), in order left to right; FIG. 2C: 1 μM (gray); 10 μM (black), in order left to right; FIG. 2D: 1 μM (gray); 10 μM (black), in order left to right;

[2] = tested on: SKOV3 ovarian cancer cells; assay: MTS cell viability assay, SKOV3 ovarian cancer cells; assay type: cell-based, human; conditions: for IC50: Homo sapiens, SK-OV-3, MTS cell viability, 48 h exposure, quadruplicate, read-out: IC50 values against cancer cells, SKOV3 ovarian; for effect on viabilities of SKOV3 ovarian cancer cells: MTS assay, FIG. 3 legend, result in words
[3] = tested on: MDA-MB-231 breast cancer cells; assay: MTS cell viability assay, MDA-MB-231 breast cancer cells; assay type: cell-based; conditions: Homo sapiens, 48 h exposure, quadruplicate, read-out: IC50 values against cancer cells, MDA-MB-231 breast
Method: as §1

[4] = molecular target: T1, AuroraA (Homo sapiens, UniProt O14965); assay: In vitro kinase assay with recombinant protein (33P-ATP), AuroraA; assay type: biochemical; conditions: 120 min at room temperature, read-out: IC50 against kinase activity in vitro, AuroraA
T1 sequence (O14965 1-403): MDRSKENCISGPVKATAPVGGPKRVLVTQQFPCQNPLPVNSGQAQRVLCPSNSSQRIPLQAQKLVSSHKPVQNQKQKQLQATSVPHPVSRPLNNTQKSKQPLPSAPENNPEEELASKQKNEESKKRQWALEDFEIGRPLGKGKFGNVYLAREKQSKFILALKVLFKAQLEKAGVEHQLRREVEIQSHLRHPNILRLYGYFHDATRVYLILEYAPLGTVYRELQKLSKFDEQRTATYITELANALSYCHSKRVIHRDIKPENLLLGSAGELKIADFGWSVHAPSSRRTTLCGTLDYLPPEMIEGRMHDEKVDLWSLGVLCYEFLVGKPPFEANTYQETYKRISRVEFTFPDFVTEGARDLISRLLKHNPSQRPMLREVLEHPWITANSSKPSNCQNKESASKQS
Method: (§2) The kinase assays were performed with recombinant proteins. Briefly, proteins, freshly prepared substrates and ^33P-ATP (specific activity 0.01 μCi/μl final) were mixed in reaction buffer (20 mM HEPES pH 7.5, 10 mM MgCl2, 1 mM EGTA, 0.02% Brij35, 0.02 mg/ml BSA, 0.1 mM Na3VO4, 2 mM DTT) in the presence of DMSO as control or 5BIODs. The mixtures were reacted for 120 min at room temperature. Samples were transferred onto P81 ion exchange paper and filters were extensively washed with 0.75% phosphoric acid. The radioactivities were monitored.

[5] = molecular target: ABL1 (Homo sapiens, UniProt P00519); assay: In vitro kinase assay with recombinant protein (33P-ATP), ABL1; assay type: biochemical; conditions: 120 min at room temperature, read-out: IC50 against kinase activity in vitro, ABL1
Method: as §2

[6] = tested on: MIA-PaCa2 pancreatic cancer cells; assay: MTS cell viability assay, MIA-PaCa2 pancreatic cancer cells; assay type: cell-based; conditions: Homo sapiens, 48 h exposure, quadruplicate, read-out: IC50 values against cancer cells, PaCa2 pancreatic
Method: as §1

[7] = tested on: DU145 prostate cancer cells; assay: MTS cell viability assay, DU145 prostate cancer cells; assay type: cell-based, human; conditions: quadruplicate, read-out: IC50 values against cancer cells, DU145 prostate
[8] = tested on: A2058 melanoma cells; assay: MTS cell viability assay, A2058 melanoma cells; assay type: cell-based, human; conditions: quadruplicate, read-out: IC50 values against cancer cells, A2058 melanoma
Method: as §1

[9] = tested on: T315I Abl mutant KCL-22 CML cells; assay: MTS cell viability assay, T315I Abl mutant KCL-22 CML cells; assay type: cell-based; conditions: Homo sapiens, 48 h exposure, quadruplicate, read-out: IC50 values against cancer cells, T315l Alb mutant KCL-22 CML
Method: as §1

[10] = molecular target: ABL1 (T315I) (Homo sapiens, UniProt P00519, T315I); assay: In vitro kinase assay with recombinant protein (33P-ATP), ABL1 (T315I); assay type: biochemical; conditions: 120 min at room temperature, read-out: IC50 against kinase activity in vitro, ABL1 (T315I)
Method: as §2

[11] = molecular target: c-Src (Homo sapiens, UniProt P12931); assay: In vitro kinase assay with recombinant protein (33P-ATP), c-Src; assay type: biochemical; conditions: 120 min at room temperature, read-out: IC50 against kinase activity in vitro, c-Src
Method: as §2

[12] = molecular target: JAK2 (Homo sapiens, UniProt O60674); assay: In vitro kinase assay with recombinant protein (33P-ATP), JAK2; assay type: biochemical; conditions: 120 min at room temperature, read-out: IC50 against kinase activity in vitro, JAK2
Method: as §2

[13] = molecular target: TYK2 (Homo sapiens, UniProt P29597); assay: In vitro kinase assay with recombinant protein (33P-ATP), TYK2; assay type: biochemical; conditions: 120 min at room temperature, read-out: IC50 against kinase activity in vitro, TYK2
Method: as §2

[14] = Homo sapiens, DU-145, 48 h exposure
[15] = Homo sapiens, A2058, 48 h exposure
[16] = Homo sapiens, DU-145, 48 h, 48 h exposure
[17] = Homo sapiens, A2058, 48 h, 48 h exposure

Sequence of TYK2 (P29597 whole entry): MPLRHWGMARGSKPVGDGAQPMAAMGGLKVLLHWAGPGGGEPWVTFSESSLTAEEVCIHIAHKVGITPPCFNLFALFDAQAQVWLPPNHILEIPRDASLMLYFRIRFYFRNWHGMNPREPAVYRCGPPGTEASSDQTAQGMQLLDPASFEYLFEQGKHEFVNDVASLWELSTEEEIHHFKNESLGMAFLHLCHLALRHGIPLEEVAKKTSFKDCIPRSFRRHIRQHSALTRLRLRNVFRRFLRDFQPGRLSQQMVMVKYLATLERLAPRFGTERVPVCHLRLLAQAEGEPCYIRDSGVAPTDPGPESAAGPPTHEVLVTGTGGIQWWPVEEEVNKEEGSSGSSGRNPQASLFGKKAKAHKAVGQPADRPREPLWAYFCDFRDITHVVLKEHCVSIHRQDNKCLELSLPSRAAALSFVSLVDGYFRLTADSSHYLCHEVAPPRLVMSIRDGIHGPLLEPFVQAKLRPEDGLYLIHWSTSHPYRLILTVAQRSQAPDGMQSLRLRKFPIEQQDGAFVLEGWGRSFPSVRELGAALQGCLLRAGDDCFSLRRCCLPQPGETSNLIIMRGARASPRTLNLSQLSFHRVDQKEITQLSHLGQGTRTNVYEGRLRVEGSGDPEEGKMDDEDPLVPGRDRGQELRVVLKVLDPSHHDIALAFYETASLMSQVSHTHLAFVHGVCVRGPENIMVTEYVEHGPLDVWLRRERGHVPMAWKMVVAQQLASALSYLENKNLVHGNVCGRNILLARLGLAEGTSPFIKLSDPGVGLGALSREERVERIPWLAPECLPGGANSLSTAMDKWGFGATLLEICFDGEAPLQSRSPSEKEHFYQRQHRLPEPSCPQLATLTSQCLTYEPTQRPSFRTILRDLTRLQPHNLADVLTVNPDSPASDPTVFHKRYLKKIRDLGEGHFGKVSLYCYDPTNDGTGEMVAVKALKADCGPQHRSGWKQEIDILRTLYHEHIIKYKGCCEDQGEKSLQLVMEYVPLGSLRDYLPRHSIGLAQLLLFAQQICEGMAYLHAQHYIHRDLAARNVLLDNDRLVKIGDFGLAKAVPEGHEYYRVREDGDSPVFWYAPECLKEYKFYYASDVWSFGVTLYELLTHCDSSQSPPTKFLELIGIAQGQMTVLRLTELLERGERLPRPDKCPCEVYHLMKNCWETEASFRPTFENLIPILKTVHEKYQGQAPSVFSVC
Sequence of c-Src (P12931 whole entry): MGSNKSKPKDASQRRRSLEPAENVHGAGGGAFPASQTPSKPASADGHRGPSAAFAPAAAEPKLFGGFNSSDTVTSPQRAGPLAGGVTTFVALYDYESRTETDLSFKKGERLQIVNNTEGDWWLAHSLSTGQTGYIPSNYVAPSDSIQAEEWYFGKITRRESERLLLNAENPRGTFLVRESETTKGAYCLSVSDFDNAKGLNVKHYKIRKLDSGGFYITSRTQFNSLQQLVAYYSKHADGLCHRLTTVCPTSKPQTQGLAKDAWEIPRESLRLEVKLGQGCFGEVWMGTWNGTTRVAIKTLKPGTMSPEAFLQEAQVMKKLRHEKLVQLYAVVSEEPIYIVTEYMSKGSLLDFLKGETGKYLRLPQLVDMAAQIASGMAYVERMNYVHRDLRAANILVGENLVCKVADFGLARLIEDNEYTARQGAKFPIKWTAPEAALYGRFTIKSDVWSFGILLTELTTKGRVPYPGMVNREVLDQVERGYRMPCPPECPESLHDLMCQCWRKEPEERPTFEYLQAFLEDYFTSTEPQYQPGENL
Sequence of JAK2 (O60674 whole entry): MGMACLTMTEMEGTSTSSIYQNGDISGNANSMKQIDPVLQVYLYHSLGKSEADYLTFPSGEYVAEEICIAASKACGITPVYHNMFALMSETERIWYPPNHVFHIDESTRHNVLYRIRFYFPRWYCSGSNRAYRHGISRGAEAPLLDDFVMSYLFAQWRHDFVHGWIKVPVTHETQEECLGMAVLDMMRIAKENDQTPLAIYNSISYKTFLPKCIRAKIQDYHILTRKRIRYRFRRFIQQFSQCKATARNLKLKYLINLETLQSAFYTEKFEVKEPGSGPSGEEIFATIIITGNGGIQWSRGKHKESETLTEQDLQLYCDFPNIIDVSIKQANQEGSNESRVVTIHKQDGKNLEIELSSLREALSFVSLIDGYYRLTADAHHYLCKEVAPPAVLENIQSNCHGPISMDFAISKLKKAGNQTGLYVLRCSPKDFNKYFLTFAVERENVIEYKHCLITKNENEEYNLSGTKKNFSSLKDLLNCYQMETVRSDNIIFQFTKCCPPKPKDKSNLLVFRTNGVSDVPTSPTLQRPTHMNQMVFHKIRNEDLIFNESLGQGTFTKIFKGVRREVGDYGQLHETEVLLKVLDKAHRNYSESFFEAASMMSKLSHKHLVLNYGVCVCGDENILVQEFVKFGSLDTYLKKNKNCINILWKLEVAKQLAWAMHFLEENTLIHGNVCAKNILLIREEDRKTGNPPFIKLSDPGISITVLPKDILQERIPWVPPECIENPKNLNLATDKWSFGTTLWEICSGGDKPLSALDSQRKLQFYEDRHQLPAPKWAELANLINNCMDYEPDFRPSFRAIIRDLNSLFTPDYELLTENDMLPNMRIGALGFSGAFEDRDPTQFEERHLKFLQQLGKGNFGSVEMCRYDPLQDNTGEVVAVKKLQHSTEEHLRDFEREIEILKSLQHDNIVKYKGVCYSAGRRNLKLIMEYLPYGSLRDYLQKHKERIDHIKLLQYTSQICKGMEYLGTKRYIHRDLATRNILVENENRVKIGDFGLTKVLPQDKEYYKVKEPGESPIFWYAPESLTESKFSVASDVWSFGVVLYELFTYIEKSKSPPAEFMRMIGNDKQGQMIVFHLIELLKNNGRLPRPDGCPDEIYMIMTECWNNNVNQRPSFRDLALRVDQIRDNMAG

CN1CCN(CCO/N=C2/C(=C3/C(=O)Nc4ccc(Br)cc43)Nc3ccccc32)CC1 [Compound 1284]
IC50 [1]: 440 nM | IC50 [2]: 1360 nM | IC50 [3]: 1000 nM

O=C1Nc2ccc(Br)cc2C1=C1Nc2ccccc2C1=NOCCN1CCNCC1 [Compound 1289]
IC50 [4]: 143 nM | IC50 [5]: 71.4 nM | IC50 [6]: 460 nM | IC50 [7, 14]: 690 nM | IC50 [8, 15]: 1100 nM | IC50 [9]: 600 nM | IC50 [1]: 380 nM | IC50 [2]: 460 nM | effect on viabilities of SKOV3 ovarian cancer cells [2]: reduce viabilities | IC50 [10]: 214 nM | IC50 [11]: 3.7 nM | IC50 [12]: 47.6 nM | IC50 [3]: 400 nM | IC50 [13]: 20.1 nM

O=C1Nc2ccc(Br)cc2/C1=C1/Nc2ccccc2/C1=N\OCCN1CCCC1 [Compound 1280]
IC50 [6]: 960 nM | IC50 [7, 14]: 660 nM | IC50 [8, 15]: 1600 nM | IC50 [9]: 860 nM | IC50 [1]: 840 nM | IC50 [2]: 1340 nM | IC50 [3]: 660 nM

O=C1Nc2ccc(Br)cc2C1=C1Nc2ccccc2C1=NOCCN1CCCC1 [Compound 1281]
IC50 [4]: 2050 nM | IC50 [5]: 2500 nM | IC50 [6]: 440 nM | IC50 [7, 14]: 660 nM | IC50 [8, 15]: 1800 nM | IC50 [9]: 580 nM | IC50 [1]: 400 nM | IC50 [2]: 750 nM | IC50 [10]: 7080 nM | IC50 [11]: 19.7 nM | IC50 [12]: 264 nM | IC50 [3]: 370 nM | IC50 [13]: 21 nM

O=C1Nc2ccc(Br)cc2/C1=C1/Nc2ccccc2/C1=N\OCCN1CCN(CCO)CC1 [Compound 1282]
IC50 [6]: 1000 nM | IC50 [7, 14]: 910 nM | IC50 [1]: 500 nM | IC50 [2]: 770 nM | IC50 [3]: 780 nM

CCN(CC)CCON=C1C(=C2C(=O)Nc3ccc(Br)cc32)Nc2ccccc21 [Compound 1277]
IC50 [4]: 3310 nM | IC50 [5]: 4770 nM | IC50 [7, 16]: 770 nM | IC50 [8, 17]: 1900 nM | IC50 [10]: > 10000 nM | IC50 [11]: 95.4 nM | IC50 [12]: 1250 nM | IC50 [13]: 146 nM

CN(C)CCO/N=C1/C(=C2/C(=O)Nc3ccc(Br)cc32)Nc2ccccc21 [Compound 1501]
IC50 [7, 14]: 320 nM | IC50 [8, 15]: 880 nM

CN(CCO/N=C1/C(=C2/C(=O)Nc3ccc(Br)cc32)Nc2ccccc21)CC(O)CO (centres unmarked) [Compound 1279]
IC50 [4]: 301 nM | IC50 [5]: 1440 nM | IC50 ([7]; 48 h exposure): 2000 nM | IC50 ([8]; 48 h exposure): 2200 nM | IC50 [10]: 5550 nM | IC50 [11]: 69.6 nM | IC50 [12]: 410 nM | IC50 [13]: 62.7 nM

O=C1Nc2ccc(Br)cc2/C1=C1/Nc2ccccc2/C1=N\OCCN1CCN(CCOCCO)CC1 [Compound 1286]
IC50 [1]: 930 nM | IC50 [2]: 1840 nM | IC50 [3]: 1360 nM

CCCN(CCC)CCO/N=C1/C(=C2/C(=O)Nc3ccc(Br)cc32)Nc2ccccc21 [Compound 1502]
IC50 [7, 14]: 1500 nM | IC50 [8, 15]: 1700 nM

CN(CCO/N=C1/C(=C2/C(=O)Nc3ccc(Br)cc32)Nc2ccccc21)CC(O)CO (centres unmarked) [Compound 1278]
IC50 [4]: 122 nM | IC50 [5]: 392 nM | IC50 [6]: 2500 nM | IC50 ([7]; 48 h exposure): 780 nM | IC50 [8, 17]: 1700 nM | IC50 [9]: 500 nM | IC50 [1]: 600 nM | IC50 [2]: 750 nM | IC50 [10]: 1550 nM | IC50 [11]: 12.1 nM | IC50 [12]: 104 nM | IC50 [3]: 710 nM | IC50 [13]: 27 nM

CCN(CC)CCO/N=C1/C(=C2/C(=O)Nc3ccc(Br)cc32)Nc2ccccc21 [Compound 1276]
IC50 [4]: 954 nM | IC50 [5]: 1020 nM | IC50 [6]: 1200 nM | IC50 [7, 16]: 420 nM | IC50 [8, 17]: 360 nM | IC50 [9]: 300 nM | IC50 [1]: 470 nM | IC50 [2]: 410 nM | effect on viabilities of SKOV3 ovarian cancer cells [2]: reduce viabilities | IC50 [10]: 6580 nM | IC50 [11]: 34.3 nM | IC50 [12]: 526 nM | IC50 [3]: 300 nM | IC50 [13]: 31.6 nM
